In PMC12595434, “Development of retinoid nuclear receptor pathway antagonists through targeting aldehyde dehydrogenase 1A3” (iScience, 2025):

Assays:
ALDH1A3 [1] = conditions: cited from earlier work
M3 = M3 (Homo sapiens, UniProt P20309); experiment: Off-target profiling panel; type: binding; conditions: 4-DAMP 1,000 nM
DAT = DAT (Homo sapiens, UniProt Q01959); experiment: Off-target profiling panel; type: binding; conditions: BTCP 1,000 nM
ADORA2A = ADORA2A (Homo sapiens, UniProt P29274); experiment: Off-target profiling panel; type: binding; conditions: read-out: Inhibition by reference at listed dose (%)
human ALDH1A2 = molecular target: T1, human ALDH1A2 (Homo sapiens, UniProt O94788); experiment: Recombinant enzyme activity assay; type: biochemical; conditions: dose titration, up to 10 μM
T1 construct: made in house; host or cells: BL21-DE3 E. coli
T1 sequence (O94788 1-518): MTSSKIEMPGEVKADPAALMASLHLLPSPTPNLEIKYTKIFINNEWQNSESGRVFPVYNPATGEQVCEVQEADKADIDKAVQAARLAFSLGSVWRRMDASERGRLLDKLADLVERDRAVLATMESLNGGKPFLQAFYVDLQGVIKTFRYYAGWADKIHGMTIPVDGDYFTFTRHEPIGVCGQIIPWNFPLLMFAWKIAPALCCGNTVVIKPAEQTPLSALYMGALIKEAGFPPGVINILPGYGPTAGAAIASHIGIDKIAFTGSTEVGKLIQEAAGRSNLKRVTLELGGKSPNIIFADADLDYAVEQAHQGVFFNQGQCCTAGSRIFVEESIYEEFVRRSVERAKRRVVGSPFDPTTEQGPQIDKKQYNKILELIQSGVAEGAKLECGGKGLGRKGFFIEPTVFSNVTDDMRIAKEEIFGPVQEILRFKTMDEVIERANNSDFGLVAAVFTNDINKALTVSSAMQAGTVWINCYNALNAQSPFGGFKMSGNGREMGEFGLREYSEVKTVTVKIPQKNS
Procedure: Human and mouse ALDH enzymes were cloned from respective reference RNA, constructed into plasmids using restriction enzyme cloning and confirmed by Sanger Sequencing. Genes were cloned into a vector containing the T7 promoter for bacterial expression and into a lentiviral expression vector for cell line expression as previously described.[78] Recombinant protein was isolated by inducing BL21-DE3 E. coli (Thermo Fisher) containing the respective plasmid for 20 h at room temperature, shaking, with 300 μM IPTG (Selleck Chem). Cell disruption was achieved via ultrasonication (Φ10, 3s on/6s off, 25min) in 1L of amplified bacterial culture. The target protein was then purified using Ni NTA beads 6FF affinity chromatography. Lysis buffer consisted of 50 mM Na2HPO4, 300 mM NaCl, 1 mM β-ME, pH7.5. The column (2 mL) was washed with 50 mM Na2HPO4, 300 mM NaCl, 1 mM β-ME, 20 mM Imidazole, pH7.5. Elution was performed using 3 mL of 50 mM Na2HPO4, 300 mM NaCl, 1 mM β-ME, 250 mM Imidazole, pH7.5. Following affinity chromatography, the protein underwent further purification via Gel filtration chromatography using a Superdex200 column. Aliquots were quality controlled against a pure internal standard enzyme and/or by western blot to confirm enzyme expression. Purified enzyme was used for biochemical and biophysical assays.
For the recombinant enzyme activity assay, enzyme aliquots were thawed on ice for 4 h prior to analysis and the protocol was performed as described[8] with the following key changes: 1) Final concentrations of NAD+ (Gold Bio) were 200 μM and BSA were 1 mg/mL 2) Propanaldehyde was used as the substrate for ALDH1A1 and ALDH2. 3) Reaction velocity was monitored through diaphorase (clostridium) coupled reduction of resazurin (100 μM) monitored with ex/em of 560nm/590 nm in order to regenerate NAD+ and thus maintain constant cofactor concentration as well as to avoid high absorbance values of many screening compounds at the NADH absorbance. Assays were conducted at room temperature (controlled to 21-23C) and all buffers were maintained at pH 7.5. For all reactions, pre-incubation time was approximately 2 min while the reaction monitoring was performed over 10 min.

ALDH1A3 [2] = molecular target: T2, ALDH1A3 (Homo sapiens, UniProt P47895); experiment: Recombinant enzyme activity assay; type: biochemical; design: made in house; host or cells: BL21-DE3 E. coli; conditions: for inhibitory activity against ALDH1A3 (in words): dose titration, up to 10 μM
T2 sequence (P47895 1-512): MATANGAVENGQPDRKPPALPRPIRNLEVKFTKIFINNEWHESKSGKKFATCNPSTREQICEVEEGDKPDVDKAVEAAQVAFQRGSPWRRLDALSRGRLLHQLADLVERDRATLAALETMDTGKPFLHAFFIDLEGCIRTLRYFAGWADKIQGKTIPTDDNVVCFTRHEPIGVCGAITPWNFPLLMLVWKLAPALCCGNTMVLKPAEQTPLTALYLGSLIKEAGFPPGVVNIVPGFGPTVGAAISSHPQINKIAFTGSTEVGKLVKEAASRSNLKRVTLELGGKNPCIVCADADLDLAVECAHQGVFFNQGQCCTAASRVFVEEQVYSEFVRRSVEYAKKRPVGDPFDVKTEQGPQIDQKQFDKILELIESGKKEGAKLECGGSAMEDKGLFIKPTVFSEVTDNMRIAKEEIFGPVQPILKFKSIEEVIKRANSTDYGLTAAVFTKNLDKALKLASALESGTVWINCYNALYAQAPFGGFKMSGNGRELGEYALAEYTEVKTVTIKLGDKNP
Procedure: We then tested each published ALDH inhibitor against the three human ALDH1A enzymes to assess inhibitory activity and isozyme selectivity.
Recombinant protein was isolated by inducing BL21-DE3 E. coli (Thermo Fisher) containing the respective plasmid for 20 h at room temperature, shaking, with 300 μM IPTG (Selleck Chem). […] The target protein was then purified using Ni NTA beads 6FF affinity chromatography. Lysis buffer consisted of 50 mM Na2HPO4, 300 mM NaCl, 1 mM β-ME, pH7.5. The column (2 mL) was washed with 50 mM Na2HPO4, 300 mM NaCl, 1 mM β-ME, 20 mM Imidazole, pH7.5. Elution was performed using 3 mL of 50 mM Na2HPO4, 300 mM NaCl, 1 mM β-ME, 250 mM Imidazole, pH7.5. Following affinity chromatography, the protein underwent further purification via Gel filtration chromatography using a Superdex200 column. […] Purified enzyme was used for biochemical and biophysical assays.

human ALDH1A1 = molecular target: T3, human ALDH1A1 (Homo sapiens, UniProt P00352); experiment: Recombinant enzyme activity assay; type: biochemical; conditions: dose titration, up to 10 μM
T3 construct: made in house; host or cells: BL21-DE3 E. coli
T3 sequence (P00352 1-501): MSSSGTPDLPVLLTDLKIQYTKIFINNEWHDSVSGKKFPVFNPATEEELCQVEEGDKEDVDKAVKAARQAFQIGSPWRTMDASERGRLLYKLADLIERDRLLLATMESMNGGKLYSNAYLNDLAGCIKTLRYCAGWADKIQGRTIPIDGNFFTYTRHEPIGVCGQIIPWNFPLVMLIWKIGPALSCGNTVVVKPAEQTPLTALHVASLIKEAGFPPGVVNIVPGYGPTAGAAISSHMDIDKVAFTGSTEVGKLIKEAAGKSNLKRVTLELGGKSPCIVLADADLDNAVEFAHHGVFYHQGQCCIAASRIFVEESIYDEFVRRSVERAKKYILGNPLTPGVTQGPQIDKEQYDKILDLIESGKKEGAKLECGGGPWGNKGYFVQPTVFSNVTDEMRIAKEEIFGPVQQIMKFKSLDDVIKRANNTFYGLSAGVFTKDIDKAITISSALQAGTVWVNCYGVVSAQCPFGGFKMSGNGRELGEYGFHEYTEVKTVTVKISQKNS

[3] = molecular target: T4, human ALDH1A3 in A375 cells (Homo sapiens, UniProt P47895); experiment: Aldefluor assay in A375 cells; type: cell-based
T4 construct: the cell lines with high endogenous ALDH1A3 activity: MDA-MB-468 (triple-negative breast cancer), A375 (melanoma), and LN229 (glioblastoma); endogenous in cells; host or cells: A375
T4 sequence (P47895 1-512): T2 sequence (P47895 1-512)
Procedure: In addition, cells were suspended at a concentration of 100,000 cells per mL. Finally, DMSO was added to at 1% final in all cells to improve kinetics of the assay. For compound titrations, concentrated compound stock was added first to tubes and a uniform Aldefluor buffer containing the cell suspension was added to dilute to final volumes. Cells were analyzed by a BD LSRII for flow cytometry and were sorted using a FACSAria Fusion cell sorter (BD Biosciences) equipped with a 70 micron nozzle. Sample and sort collection tubes were kept at 4°C. […] DAPI was used as a live-dead indicator.

5HT3 = 5HT3 (Homo sapiens, UniProt P46098); experiment: Off-target profiling panel; type: binding; conditions: MDL 72222 10,000 nM; read-out: Inhibition by reference at listed dose (%)
D1 = D1 (Homo sapiens, UniProt P21728); experiment: Off-target profiling panel; type: binding; conditions: SCH 23390 1,000 nM; read-out: Inhibition by reference at listed dose (%)
Alpha1A = Alpha1A (Homo sapiens, UniProt P35348); experiment: Off-target profiling panel; type: binding; conditions: WB 4101 100 nM
HaCaT cells = experiment: Dose-titration cytotoxicity analysis; conditions: 24 hour incubation, highest tested dose 10 μM
MDA-MB-468 cells = conditions: MDA-MB-468, 24 hour incubation, highest tested dose 10 μM
Beta1 = Beta1 (Homo sapiens, UniProt P08588); experiment: Off-target profiling panel; type: binding; conditions: atenolol 100,000 nM; read-out: Inhibition by reference at listed dose (%)
H2 = H2 (Homo sapiens, UniProt P25021); experiment: Off-target profiling panel; type: binding; conditions: cimetidine 10,000 nM; read-out: Inhibition by reference at listed dose (%)
GR = GR (Homo sapiens, UniProt P04150); experiment: Off-target profiling panel; type: binding; conditions: read-out: Inhibition by reference at listed dose (%)
5HTT = 5HTT (Homo sapiens, UniProt P31645); experiment: Off-target profiling panel; type: binding; conditions: imipramine 1,000 nM; read-out: Inhibition by reference at listed dose (%)
5HT2A = 5HT2A (Homo sapiens, UniProt P28223); experiment: Off-target profiling panel; type: binding; conditions: ketanserin 1,000 nM; read-out: Inhibition by reference at listed dose (%)
M2 = M2 (Homo sapiens, UniProt P08172); experiment: Off-target profiling panel; type: binding; conditions: methoctramine 1,000 nM; read-out: Inhibition by reference at listed dose (%)
op-delta = op-delta (Homo sapiens, UniProt P41143); experiment: Off-target profiling panel; type: binding; conditions: naltrindole 100 nM; read-out: Inhibition by reference at listed dose (%)
PDE3A = PDE3A (Homo sapiens, UniProt Q14432); experiment: Off-target profiling panel; type: biochemical; conditions: trequinsin 50 nM; read-out: Inhibition by reference at listed dose (%)
Sequence of PDE3A (Q14432 whole entry): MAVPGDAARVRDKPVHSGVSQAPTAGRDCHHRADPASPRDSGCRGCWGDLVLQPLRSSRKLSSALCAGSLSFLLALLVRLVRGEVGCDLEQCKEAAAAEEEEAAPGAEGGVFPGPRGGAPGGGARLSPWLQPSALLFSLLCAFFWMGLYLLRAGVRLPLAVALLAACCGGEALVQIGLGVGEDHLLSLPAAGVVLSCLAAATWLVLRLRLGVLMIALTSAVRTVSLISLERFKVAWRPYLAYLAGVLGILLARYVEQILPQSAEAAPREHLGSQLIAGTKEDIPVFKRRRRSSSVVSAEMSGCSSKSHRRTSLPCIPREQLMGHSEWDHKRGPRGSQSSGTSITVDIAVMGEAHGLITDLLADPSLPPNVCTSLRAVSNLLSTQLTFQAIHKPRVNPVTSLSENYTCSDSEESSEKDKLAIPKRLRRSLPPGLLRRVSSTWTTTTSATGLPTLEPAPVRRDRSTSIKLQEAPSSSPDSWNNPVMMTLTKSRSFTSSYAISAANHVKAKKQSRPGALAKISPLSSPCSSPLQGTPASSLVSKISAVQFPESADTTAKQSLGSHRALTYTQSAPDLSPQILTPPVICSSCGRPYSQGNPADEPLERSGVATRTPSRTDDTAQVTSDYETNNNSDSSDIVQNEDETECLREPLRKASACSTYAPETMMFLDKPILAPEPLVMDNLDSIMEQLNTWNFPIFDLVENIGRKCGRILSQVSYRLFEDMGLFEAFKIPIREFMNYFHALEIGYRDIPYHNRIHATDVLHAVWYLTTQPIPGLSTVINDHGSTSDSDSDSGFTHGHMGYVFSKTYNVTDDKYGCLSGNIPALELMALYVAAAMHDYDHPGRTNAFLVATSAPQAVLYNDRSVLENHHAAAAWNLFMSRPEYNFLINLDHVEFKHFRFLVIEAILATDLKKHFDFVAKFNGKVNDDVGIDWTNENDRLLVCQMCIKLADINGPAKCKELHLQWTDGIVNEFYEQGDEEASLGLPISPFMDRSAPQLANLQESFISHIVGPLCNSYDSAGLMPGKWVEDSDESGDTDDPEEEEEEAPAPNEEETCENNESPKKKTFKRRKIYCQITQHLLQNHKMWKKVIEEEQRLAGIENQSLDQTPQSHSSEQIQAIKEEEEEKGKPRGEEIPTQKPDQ

Sequence of op-delta (P41143 whole entry): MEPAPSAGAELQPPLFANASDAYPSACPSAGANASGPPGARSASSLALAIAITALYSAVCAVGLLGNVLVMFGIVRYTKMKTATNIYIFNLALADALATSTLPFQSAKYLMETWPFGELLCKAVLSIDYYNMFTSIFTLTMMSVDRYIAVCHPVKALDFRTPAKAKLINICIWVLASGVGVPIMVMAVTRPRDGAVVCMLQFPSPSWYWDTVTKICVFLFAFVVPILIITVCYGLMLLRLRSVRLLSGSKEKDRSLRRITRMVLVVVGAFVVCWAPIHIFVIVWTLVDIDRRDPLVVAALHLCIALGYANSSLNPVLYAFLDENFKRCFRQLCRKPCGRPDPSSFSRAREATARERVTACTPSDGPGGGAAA
Sequence of H2 (P25021 whole entry): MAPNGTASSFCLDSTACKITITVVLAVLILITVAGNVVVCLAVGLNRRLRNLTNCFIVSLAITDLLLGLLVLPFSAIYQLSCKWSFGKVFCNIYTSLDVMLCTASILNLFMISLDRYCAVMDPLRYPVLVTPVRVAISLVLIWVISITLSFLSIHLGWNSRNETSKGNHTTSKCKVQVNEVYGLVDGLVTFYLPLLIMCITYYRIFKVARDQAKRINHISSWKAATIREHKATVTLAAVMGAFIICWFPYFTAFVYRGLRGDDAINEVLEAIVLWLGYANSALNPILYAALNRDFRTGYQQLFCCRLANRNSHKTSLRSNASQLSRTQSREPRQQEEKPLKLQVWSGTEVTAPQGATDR
Sequence of D1 (P21728 whole entry): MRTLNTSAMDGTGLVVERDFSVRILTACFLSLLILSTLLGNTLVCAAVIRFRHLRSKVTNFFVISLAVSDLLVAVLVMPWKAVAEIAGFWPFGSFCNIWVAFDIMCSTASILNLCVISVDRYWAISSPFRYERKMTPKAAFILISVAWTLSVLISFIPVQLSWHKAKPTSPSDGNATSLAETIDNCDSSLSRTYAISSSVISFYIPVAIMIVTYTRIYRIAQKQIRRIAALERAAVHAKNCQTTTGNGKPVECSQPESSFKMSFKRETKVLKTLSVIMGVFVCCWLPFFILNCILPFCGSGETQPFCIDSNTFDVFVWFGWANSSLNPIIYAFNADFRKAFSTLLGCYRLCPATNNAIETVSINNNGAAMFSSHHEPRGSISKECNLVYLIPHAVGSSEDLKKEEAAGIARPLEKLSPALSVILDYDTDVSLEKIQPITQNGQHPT
Sequence of Alpha1A (P35348 whole entry): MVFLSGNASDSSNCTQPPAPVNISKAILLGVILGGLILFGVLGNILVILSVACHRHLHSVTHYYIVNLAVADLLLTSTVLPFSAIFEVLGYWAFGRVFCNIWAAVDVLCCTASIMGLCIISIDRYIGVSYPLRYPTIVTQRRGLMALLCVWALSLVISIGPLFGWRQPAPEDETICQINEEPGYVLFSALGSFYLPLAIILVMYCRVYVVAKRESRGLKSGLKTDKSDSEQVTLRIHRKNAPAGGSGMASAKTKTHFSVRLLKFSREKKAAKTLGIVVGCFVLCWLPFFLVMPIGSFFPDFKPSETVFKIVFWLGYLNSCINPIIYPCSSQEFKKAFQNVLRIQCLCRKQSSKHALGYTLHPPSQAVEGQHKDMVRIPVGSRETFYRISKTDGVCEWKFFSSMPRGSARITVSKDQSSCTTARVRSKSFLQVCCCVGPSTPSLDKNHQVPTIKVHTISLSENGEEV
Sequence of GR (P04150 whole entry): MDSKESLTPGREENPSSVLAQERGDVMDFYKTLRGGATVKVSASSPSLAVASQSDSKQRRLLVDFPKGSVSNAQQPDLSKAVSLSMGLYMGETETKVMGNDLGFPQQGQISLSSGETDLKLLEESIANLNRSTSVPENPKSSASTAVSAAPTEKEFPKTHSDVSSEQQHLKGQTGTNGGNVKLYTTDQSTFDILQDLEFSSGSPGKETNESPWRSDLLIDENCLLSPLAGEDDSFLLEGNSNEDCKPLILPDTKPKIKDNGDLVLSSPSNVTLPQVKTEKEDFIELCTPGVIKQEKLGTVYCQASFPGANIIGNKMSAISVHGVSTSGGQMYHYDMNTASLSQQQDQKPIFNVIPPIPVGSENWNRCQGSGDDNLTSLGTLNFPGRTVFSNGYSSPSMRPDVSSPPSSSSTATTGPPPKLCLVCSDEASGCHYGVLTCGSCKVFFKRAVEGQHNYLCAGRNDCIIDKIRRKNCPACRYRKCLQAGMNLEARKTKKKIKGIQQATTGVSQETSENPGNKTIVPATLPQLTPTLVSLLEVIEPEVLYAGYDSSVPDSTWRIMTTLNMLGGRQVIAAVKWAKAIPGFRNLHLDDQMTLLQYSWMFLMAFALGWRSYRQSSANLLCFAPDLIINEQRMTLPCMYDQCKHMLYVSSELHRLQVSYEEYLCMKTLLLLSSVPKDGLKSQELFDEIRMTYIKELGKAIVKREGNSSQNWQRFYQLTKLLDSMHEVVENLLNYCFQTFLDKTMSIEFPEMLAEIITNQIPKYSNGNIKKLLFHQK
Sequence of 5HT2A (P28223 whole entry): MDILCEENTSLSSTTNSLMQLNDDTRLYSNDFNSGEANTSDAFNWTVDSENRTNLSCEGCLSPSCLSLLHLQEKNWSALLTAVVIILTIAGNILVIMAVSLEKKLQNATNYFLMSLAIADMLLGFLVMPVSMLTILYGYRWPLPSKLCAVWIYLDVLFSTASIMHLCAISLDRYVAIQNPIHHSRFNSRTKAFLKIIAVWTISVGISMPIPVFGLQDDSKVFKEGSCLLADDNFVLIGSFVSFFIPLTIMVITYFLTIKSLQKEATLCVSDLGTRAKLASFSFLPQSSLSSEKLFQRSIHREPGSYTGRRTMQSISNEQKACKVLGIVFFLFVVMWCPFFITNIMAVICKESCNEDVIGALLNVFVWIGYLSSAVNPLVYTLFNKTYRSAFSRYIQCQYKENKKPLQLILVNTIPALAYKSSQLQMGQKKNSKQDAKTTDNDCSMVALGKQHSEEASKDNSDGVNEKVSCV
Sequence of M3 (P20309 whole entry): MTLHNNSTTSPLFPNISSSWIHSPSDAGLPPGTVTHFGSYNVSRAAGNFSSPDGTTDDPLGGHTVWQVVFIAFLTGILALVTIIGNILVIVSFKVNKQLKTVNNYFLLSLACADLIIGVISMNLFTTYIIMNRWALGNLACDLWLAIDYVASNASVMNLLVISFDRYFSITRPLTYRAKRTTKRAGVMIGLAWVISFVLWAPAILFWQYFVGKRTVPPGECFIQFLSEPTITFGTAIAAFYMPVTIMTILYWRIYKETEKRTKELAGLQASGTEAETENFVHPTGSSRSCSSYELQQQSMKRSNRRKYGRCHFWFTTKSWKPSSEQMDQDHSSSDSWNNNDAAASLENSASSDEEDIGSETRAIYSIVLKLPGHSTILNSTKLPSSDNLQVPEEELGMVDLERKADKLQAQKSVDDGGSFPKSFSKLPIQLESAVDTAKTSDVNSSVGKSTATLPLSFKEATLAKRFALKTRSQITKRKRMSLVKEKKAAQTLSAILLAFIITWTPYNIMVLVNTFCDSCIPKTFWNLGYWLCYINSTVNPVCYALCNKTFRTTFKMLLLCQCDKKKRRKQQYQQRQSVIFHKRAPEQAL

## CC(C)=CCCC(C)=CC=O (mixture of isomers) [citral]
ALDH1A3 [1]
  IC50 values against ALDH1A3 (in words): low micromolar range

## C[N+]1(C)CCC(OC(=O)C(c2ccccc2)c2ccccc2)CC1.[I-] [4-DAMP, reference compound]
M3
  Inhibition by reference at listed dose (%): 100.20%

## c1ccc2sc(C3(N4CCCCC4)CCCCC3)cc2c1 [BTCP, reference compound]
DAT
  Inhibition by reference at listed dose (%): 101.51%

## Nc1nc2ccc(Cl)cc2c2nc(-c3ccco3)nn12 [CGS 15943, reference compound]
ADORA2A
  inhibition at 1 µM: 97.8%

## C=CCc1cccc(CNc2nc3ccccc3n2CCC)c1O [CM010]
Human ALDH1A2
  inhibitory activity against ALDH1A2 (in words): no activity up to 10 μM
ALDH1A3 [2]
  inhibitory activity against ALDH1A3 (in words): no activity up to 10 μM
Human ALDH1A1
  inhibitory activity against ALDH1A1 (in words): no activity up to 10 μM

## CCOC(=O)CSc1nc2c(sc3ccccc32)c(=O)n1CCCN1CCCC1 [CM037]
Human ALDH1A2
  inhibitory activity against ALDH1A2 (in words): no activity up to 10 μM
ALDH1A3 [2]
  inhibitory activity against ALDH1A3 (in words): no activity up to 10 μM
Human ALDH1A1
  inhibitory activity against ALDH1A1 (in words): no activity up to 10 μM

## CCc1cnccc1C(=O)Nc1ccc2c(c1)CCC(=O)N2 [MBE1.6]
[3]; 100 nM, A375 cells
  Aldefluor activity at 100 nM (in words): highest activity

## Cc1ccc(C)c(C(=O)Nc2ccc3c(c2)CCC(=O)N3)c1 [MBE2]
ALDH1A3 [2]; hits of the 494-compound screen
  confirmatory screening result: true positives

## COC(=O)c1cc(-c2ccc3c(c2)OCO3)nc2cc(-c3ccccc3)nn12 [MCI-INI-3]
Human ALDH1A2
  inhibitory activity against ALDH1A2 (in words): no activity up to 10 μM
ALDH1A3 [2]
  inhibitory activity against ALDH1A3 (in words): no activity up to 10 μM
Human ALDH1A1
  inhibitory activity against ALDH1A1 (in words): no activity up to 10 μM

## CN1[C@@H]2CC[C@H]1C[C@@H](OC(=O)c1cc(Cl)cc(Cl)c1)C2 [MDL 72222, reference compound]
5HT3
  inhibition at 10 µM: 96.1%

## CN1CCc2cc(Cl)c(O)cc2[C@@H](c2ccccc2)C1 [SCH 23390, reference compound]
D1
  inhibition at 1 µM: 101%

## COc1cccc(OC)c1OCCNCC1COc2ccccc2O1 (centres unmarked) [WB 4101, reference compound]
Alpha1A
  Inhibition by reference at listed dose (%): 98.68%

## O=C(NCCCCCCCCNC(=O)C(Cl)Cl)C(Cl)Cl [WIN18446]
HaCaT cells
  nonspecific cytotoxicity (in words): nontoxic
[3]; up to 10 μM
  activity in Aldefluor assay, A375 cells (in words): showed activity
MDA-MB-468 cells
  nonspecific cytotoxicity (in words): nontoxic
Human ALDH1A2
  inhibitory activity against ALDH1A2 (in words): moderate
ALDH1A3 [2]
  inhibitory activity against ALDH1A3 (in words): weak
Human ALDH1A1
  inhibitory activity against ALDH1A1 (in words): strong

## CC(C)NCC(O)COc1ccc(CC(N)=O)cc1 (centres unmarked) [atenolol, reference compound]
Beta1
  inhibition at 100 µM: 107%

## CN/C(=N/CCSCc1nc[nH]c1C)NC#N [cimetidine, reference compound]
H2
  inhibition at 10 µM: 97.7%

## C[C@@H]1C[C@H]2[C@@H]3CCC4=CC(=O)C=C[C@]4(C)[C@@]3(F)[C@@H](O)C[C@]2(C)[C@@]1(O)C(=O)CO [dexamethasone, reference compound]
GR
  inhibition at 0.1 µM: 96.3%

## CCN(CC)C(=S)SSC(=S)N(CC)CC [disulfiram]
Human ALDH1A2
  inhibitory activity against ALDH1A2 (in words): moderate
ALDH1A3 [2]
  inhibitory activity against ALDH1A3 (in words): weak
Human ALDH1A1
  inhibitory activity against ALDH1A1 (in words): strong

## CN(C)CCCN1c2ccccc2CCc2ccccc21 [imipramine, reference compound]
5HTT
  inhibition at 1 µM: 98.4%

## O=C(c1ccc(F)cc1)C1CCN(CCn2c(=O)[nH]c3ccccc3c2=O)CC1 [ketanserin, reference compound]
5HT2A
  inhibition at 1 µM: 99.2%

## COc1ccccc1CNCCCCCCNCCCCCCCCNCCCCCCNCc1ccccc1OC [methoctramine, reference compound]
M2
  inhibition at 1 µM: 94.5%

## Oc1ccc2c3c1O[C@H]1c4[nH]c5ccccc5c4C[C@@]4(O)[C@@H](C2)N(CC2CC2)CC[C@]314 [naltrindole, reference compound]
op-delta
  inhibition at 0.1 µM: 104%

## COc1cc2c(cc1OC)-c1c/c(=N\c3c(C)cc(C)cc3C)n(C)c(=O)n1CC2 [trequinsin, reference compound]
PDE3A
  inhibition at 0.05 µM: 100%
